Results from paper PMC5362899, “Structural insights into the nucleotide base specificity of P2X receptors” (Scientific Reports, 2017).
Where a chain is given by its changes, count along the chain named.

Assays:
[1] = target: T1, zfP2X4 (ΔP2X4-C) T189V mutant (Danio rerio, UniProt F8W463, N187R/N78K/T189V); assay: ATR-FTIR difference spectroscopy, residual nucleotide after washing, zfP2X4 T189V; format: binding, zebrafish; conditions: 10 μM nucleotide, after 15–30 min washing, P-O stretching bands 1250–800 cm−1
T1 construct: EGFP (N); octa-histidine tag (N); made in house; host or cells: Sf9 insect cells
T1 sequence (F8W463 28-365 N78K/N187R/T189V limits assumed): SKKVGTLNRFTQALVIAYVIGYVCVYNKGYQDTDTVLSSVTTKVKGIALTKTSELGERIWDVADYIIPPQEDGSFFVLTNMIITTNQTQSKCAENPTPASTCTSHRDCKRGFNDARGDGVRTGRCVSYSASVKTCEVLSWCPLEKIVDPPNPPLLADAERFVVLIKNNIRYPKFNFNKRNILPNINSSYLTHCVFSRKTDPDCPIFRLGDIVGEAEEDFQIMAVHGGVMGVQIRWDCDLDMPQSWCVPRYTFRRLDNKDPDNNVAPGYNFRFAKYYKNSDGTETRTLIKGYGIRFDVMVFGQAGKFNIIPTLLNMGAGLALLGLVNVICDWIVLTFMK
Description: (§1) To further investigate the nucleotide binding specificity of zfP2X4, we applied ligand-binding induced difference Attenuated total reflectance (ATR)-Fourier-transform infrared (FTIR) spectroscopy on the WT and conserved threonine mutants (T189S and T189V) of zfP2X4.
(§2) Figure 5 ATR-FTIR spectroscopic analysis of zfP2X4 for the ATP and CTP bindings. (A) The reduction of the ligand binding induced difference spectra in the ΔP2X4-C ^zfWT, ^zfT189S and ^zfT189V mutants around the P-O stretching region (1250–800 cm^−1) after washing treatment for 15–30 min. (B) The residual nucleotides after the washing treatment estimated from the ATR-FTIR analysis in (A).
(§3) The nucleotide binding affinity of zfP2X4 was analyzed by reduction of the band intensity after washing treatment (Fig. 5). The reduction of the P-O stretching bands between 1250–800 cm^−1 was monitored for ATP (Fig. 5A). […]
(§4) The perfusion-induced difference FTIR spectroscopy was performed as similarly to the previous studies. […] ATR-FTIR spectra of the samples were recorded at 25 °C and 2 cm^−1 resolution using a VERTEX 70 spectrometer (Bruker Optics) equipped with a liquid-nitrogen-cooled MCT detector. […] The obtained difference spectra were normalized based on the absolute absorbance of the amide I band at 1653 cm^−1, which well correlates with the quantities of the proteins on the ATR crystals. […]

[2] = target: T2, zfP2X4 (ΔP2X4-C) T189S mutant (Danio rerio, UniProt F8W463, N187R/N78K/T189S); assay: ATR-FTIR difference spectroscopy, residual nucleotide after washing, zfP2X4 T189S; format: binding, zebrafish; conditions: 10 μM nucleotide, after 15–30 min washing, P-O stretching bands 1250–800 cm−1
T2 construct: EGFP (N); octa-histidine tag (N); made in house; host or cells: Sf9 insect cells
T2 sequence (F8W463 28-365 N78K/N187R/T189S limits assumed): T1 sequence (F8W463 28-365 N78K/N187R/T189V limits assumed) with V162S
Description: as §1, §2, §3, §4

Structure (SMILES)	residual nucleotide binding after washing [1]	residual nucleotide binding after washing [2]
Nc1ncnc2c1ncn2[C@@H]1O[C@H](COP(=O)(O)OP(=O)(O)OP(=O)(O)O)[C@@H](O)[C@H]1O [ATP, Adenosine 5-triphosphate]	10%	~ 60%
Nc1ccn([C@@H]2O[C@H](COP(=O)(O)OP(=O)(O)OP(=O)(O)O)[C@@H](O)[C@H]2O)c(=O)n1 [CTP]	~ 30%	~ 30%
